Assay: solvent given as SMILES

Compound `O=Cc1ccc(N(c2ccc(C=O)cc2)c2ccc(-c3ccc4c(c3)C(=O)c3ccccc3C4=O)cc2)cc1` has an emission maximum (in C1CCOC1) of 662 nm, an emission maximum (in CCCCCC) of 493 nm and an emission maximum (in CCOC(C)=O) of 654 nm. It also gave an emission maximum (in CCOCC) of 585 nm, an emission maximum (in Cc1ccccc1) of 558 nm and an emission maximum (in ClC(Cl)(Cl)Cl) of 541 nm. It also gave an emission maximum (in ClCCl) of 685 nm.
For `CCOC(=O)/N=c1/oc2c(OC)cccc2cc1C#N`, the emission maximum (in ClCCl) was 465 nm.
With `CCC1=[N+]2c3c(c4ccc(Oc5c(C)cc(C)cc5C)c5cc6c(Oc7c(C)cc(C)cc7C)ccc7c8cc(CC)n(c8c3c(c54)c67)[B-]2(F)F)=C1` the emission maximum (in Cc1ccccc1) was 924 nm.
Work on `CC(C)(C)c1ccc2c(c1)B1c3cc(C(C)(C)C)ccc3Oc3cc(-n4c5ccccc5c5c6c(c7ccccc7n6-c6ccccc6)c6c(c7ccccc7n6-c6ccccc6)c54)cc(c31)O2` yielded an emission maximum (in Cc1ccccc1) of 456 nm.
`COc1ccc(-c2cc3c(ccc(=O)n3C)s2)cc1` gave an emission maximum (in CC#N) of 424 nm and an emission maximum (in ClCCl) of 426 nm.
Compound `CC1=C(C#Cc2ccc(N(c3ccccc3)c3ccccc3)cc2)C(C)=[N+]2C1=C(c1ccccc1)c1c(C)c(C#Cc3ccc(N(c4ccccc4)c4ccccc4)cc3)c(C)n1[B-]2(F)F` has an emission maximum (in C1CCOC1) of 659 nm.
`COC(=O)/C(C#N)=c1/cc/c(=c2/cc/c(=C(\C#N)C(=O)OC)s2)s1` showed an emission maximum (in Cc1ccccc1) of 601 nm.
In the case of `O=C1OC(c2ccccc2)=C/C1=C\c1ccc([N+](=O)[O-])cc1`, the emission maximum (in C1COCCO1) is reported as 518 nm.
`CC(C)Nc1cc2oc3cc(NC(C)C)c(F)cc3c(=O)c2cc1F` showed an emission maximum (in CCO) of 422 nm.
`CCN1C(=CC=Cc2n(CC)c3cc(Cl)c(Cl)cc3[n+]2CC)N(CC)c2cc(Cl)c(Cl)cc21` gave an emission maximum (in CC#N) of 529 nm, an emission maximum (in CCCCCCO) of 535 nm and an emission maximum (in CCCCO) of 534 nm. The emission maximum (in CCCO) was 532 nm, the emission maximum (in CCO) was 530 nm and the emission maximum (in CO) was 528 nm. It also gave an emission maximum (in CS(C)=O) of 536 nm, an emission maximum (in OCC(O)CO) of 535 nm and an emission maximum (in OCCO) of 532 nm.
`c1ccc(N2N=C(c3ccc4ccc5cccc6ccc3c4c56)CC2c2ccc3ccc4cccc5ccc2c3c45)cc1` (centres undefined) showed an emission maximum (in ClCCl) of 508 nm.
Compound `CN(C)c1ccc(/C=C/c2ccc(-c3nc(C#N)c(C#N)n3C)cc2)cc1` has an emission maximum (in C1CCCCC1) of 437 nm, an emission maximum (in CC#N) of 530 nm and an emission maximum (in CO) of 514 nm. The emission maximum (in ClC(Cl)Cl) was 500 nm.
Work on `CCn1c2ccccc2c2cc(-c3cc(-c4ccc5c(c4)c4ccccc4n5CC)nc(SC)n3)ccc21` yielded an emission maximum (in C1CCOC1) of 394 nm, an emission maximum (in CCOC(C)=O) of 392 nm and an emission maximum (in CN(C)C=O) of 421 nm. For the same compound, the emission maximum (in Cc1ccccc1) was 387 nm and the emission maximum (in ClCCl) was 411 nm.
With `c1ccc2c(c1)-c1cc(-n3c4ccccc4c4ccccc43)ccc1C21c2ccccc2-n2c3ccccc3c3cccc1c32` (centres undefined) the emission maximum (in ClCCl) was 372 nm.
`N#Cc1cc2ccc([O-])cc2oc1=O` gave an emission maximum (in O) of 450 nm.
With `CC1(C)c2ccccc2-c2cc3c(cc21)N(c1ccc(-c2nc(-c4ccc(N5c6ccccc6C(c6ccccc6)(c6ccccc6)c6cc7c(cc65)C(C)(C)c5ccccc5-7)cc4)nc(-c4ccc(N5c6ccccc6C(c6ccccc6)(c6ccccc6)c6cc7c(cc65)C(C)(C)c5ccccc5-7)cc4)n2)cc1)c1ccccc1C3(c1ccccc1)c1ccccc1` the emission maximum (in Cc1ccccc1) was 515 nm.
Compound `Cc1cc(-c2ccc(N(c3ccccc3)c3ccccc3)cc2)c2nsnc2c1-c1ccc(C(C)(C)C)cc1` has an emission maximum (in ClCCl) of 575 nm.
`O=P1(c2ccccc2)C2=C(c3ccccc31)S(=O)(=O)c1ccccc12` (centres undefined) gave an emission maximum (in C1CCCCC1) of 453 nm, an emission maximum (in CC#N) of 465 nm and an emission maximum (in CCO) of 471 nm. For the same compound, the emission maximum (in ClCCl) was 466 nm.
`COc1ccc2c(c1)c(C#N)cc1c(OC)c(OC)c3cc(C#N)c4cc(OC)ccc4c3c12` gave an emission maximum (in ClC(Cl)Cl) of 496 nm.
For `CCCCN1C(=O)c2cccc3c(OC)ccc(c23)C1=O`, the emission maximum (in Cc1ccccc1) was 422 nm.
For `Cc1ccccc1/C(C#N)=C/c1ccc(N(C)C)cc1`, the emission maximum (in C1CCOC1) was 484 nm, the emission maximum (in C1COCCO1) was 476 nm and the emission maximum (in CC#N) was 427 nm. The emission maximum (in CCCCCC) was 431 nm, the emission maximum (in CCCCCCC) was 433 nm and the emission maximum (in CCCCCO) was 495 nm. For the same compound, the emission maximum (in CCCCO) was 502 nm, the emission maximum (in CCCO) was 505 nm and the emission maximum (in CCO) was 509 nm. For the same compound, the emission maximum (in CCOC(C)=O) was 490 nm, the emission maximum (in CN(C)C=O) was 456 nm and the emission maximum (in CO) was 450 nm. For the same compound, the emission maximum (in CS(C)=O) was 453 nm, the emission maximum (in Cc1ccccc1) was 464 nm and the emission maximum (in ClC(Cl)Cl) was 481 nm.
`CNc1ccc2c(c1)C(=O)c1ccccc1-2` gave an emission maximum (in C1CCCCC1) of 587 nm and an emission maximum (in c1ccccc1) of 635 nm.
`COc1cc(OC)c2c(c1)c1cc3oc(=O)cc(C)c3cc1c1cc(OC)cc(OC)c12` gave an emission maximum (in ClC(Cl)Cl) of 538 nm.
In the case of `CC1=C(C2=C(C)C(C)=[N+]3C2=Cc2cc(C)c(C)n2[B-]3(F)F)C2=Cc3cc(C)c(C)n3[B-](F)(F)[N+]2=C1C`, the emission maximum (in ClCCl) is reported as 598 nm.
In the case of `COc1cc(/C=C/c2nc(N3CCOCC3)c3c([n+]2[O-])CCCC3)cc(OC)c1OC`, the emission maximum (in ClCCl) is reported as 521 nm.
With `CC1(C)c2ccccc2N(c2ccc(-c3cc(C#N)c(C#N)cc3-c3ccc(N4c5ccccc5C(C)(C)c5ccccc54)cc3)cc2)c2ccccc21` the emission maximum (in Cc1ccccc1) was 532 nm and the emission maximum (in c1cc(-c2cccc(-n3c4ccccc4c4ccccc43)c2)cc(-n2c3ccccc3c3ccccc32)c1) was 499 nm.
`CCN(CC)c1ccc(-c2nc(Oc3ccc(-c4nc5ccc(Cl)cc5o4)cc3)nc(Oc3ccc(-c4nc5ccc(Cl)cc5o4)cc3)n2)cc1` showed an emission maximum (in CN(C)C=O) of 424 nm.
Compound `OC1(c2ccc(-c3cccs3)s2)CCC(c2ccccc2)CC1` (centres undefined) has an emission maximum (in C1CCOC1) of 471 nm, an emission maximum (in CC#N) of 468 nm and an emission maximum (in CCCCCC) of 464 nm. For the same compound, the emission maximum (in CCO) was 460 nm, the emission maximum (in OCCOCCO) was 384 nm and the emission maximum (in c1ccncc1) was 385 nm.
`N#Cc1ncc(-c2c3ccccc3c(-c3cnc(C#N)nc3)c3ccccc23)cn1` gave an emission maximum (in CCO) of 520 nm and an emission maximum (in ClCCl) of 464 nm.
In the case of `COc1ccc2c3c(c4ccc(C(C)(C)C)cc4c2c1)=C(c1cc(OC)c(OC)c(OC)c1)C1=Nc2c(-c4cc(OC)c(OC)c(OC)c4)c4c5ccc(C(C)(C)C)cc5c5cc(OC)ccc5c4n2[B-](F)(F)[N+]=31`, the emission maximum (in Cc1ccccc1) is reported as 810 nm.
Work on `CC(C)(C)c1ccc(-c2cc(-c3ccc(-c4cc(-c5ccc(C(C)(C)C)cc5)c(C(=O)N5CCCCC5)s4)s3)sc2C(=O)N2CCCCC2)cc1` yielded an emission maximum (in ClCCl) of 461 nm.
`COCCOCCOCCOCC(COCCOCCOCCOC)Oc1cc(/C=C/c2ccc(C=C(C#N)C#N)cc2)c(OC(COCCOCCOCCOC)COCCOCCOCCOC)cc1/C=C/c1ccc(C=C(C#N)C#N)cc1` showed an emission maximum (in ClCCl) of 596 nm.
`CCC1=C(C)C(=O)n2c1cc1c(C)c(CC(=O)OC)c(C)n1c2=O` gave an emission maximum (in CO) of 525 nm, an emission maximum (in CS(C)=O) of 500 nm and an emission maximum (in ClC(Cl)Cl) of 490 nm. The emission maximum (in c1ccccc1) was 465 nm.
`O=C(c1ccc(-n2c3ccccc3c3cc(-n4c5ccccc5c5ccccc54)ccc32)cc1)c1ccc(-n2c3ccccc3c3cc(-n4c5ccccc5c5ccccc54)ccc32)cn1` showed an emission maximum (in Cc1ccccc1) of 462 nm and an emission maximum (in O=P(c1ccccc1)(c1ccccc1)c1ccccc1Oc1ccccc1P(=O)(c1ccccc1)c1ccccc1) of 475 nm.
In the case of `CSc1ccc2cc(C#N)c3ccc4ccccc4c3c2c1`, the emission maximum (in ClC(Cl)Cl) is reported as 403 nm.
Compound `CCOC(=O)CSc1nc(-c2ccccc2)c(C)c(C#N)c1C#N` has an emission maximum (in C1COCCO1) of 414 nm, an emission maximum (in CC#N) of 426 nm and an emission maximum (in CCO) of 434 nm. For the same compound, the emission maximum (in CCOC(C)=O) was 421 nm, the emission maximum (in ClC(Cl)Cl) was 435 nm and the emission maximum (in c1ccccc1) was 421 nm.
`COc1cc(-c2ncc(-c3ccncc3)o2)cc(OC)c1OC` gave an emission maximum (in ClCCl) of 417 nm.
In the case of `CCCCCCCCn1c(=O)c2cc3c(C#Cc4ccc(N(c5ccccc5)c5ccccc5)cc4)c4cc5c(=O)n(CCCCCCCC)c(=O)c5cc4c(C#Cc4ccc(N(c5ccccc5)c5ccccc5)cc4)c3cc2c1=O`, the emission maximum (in ClC(Cl)Cl) is reported as 641 nm.
